Columns and labels:
[1] = target: T1, Fatty acid-binding protein, liver (Homo sapiens, UniProt P07148); assay: Inhibition of FABP1 (unknown origin)
T1 sequence (P07148 whole entry): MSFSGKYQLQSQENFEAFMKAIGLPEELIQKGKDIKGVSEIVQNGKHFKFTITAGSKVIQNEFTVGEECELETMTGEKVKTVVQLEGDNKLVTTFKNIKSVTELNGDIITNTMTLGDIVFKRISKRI

[2] = target: T2, Mineralocorticoid receptor (Homo sapiens, UniProt P08235); assay: Agonist activity at mineralocorticoid receptor (unknown origin) transfected in green monkey CV-1 cells co-transfected with NHR responsive luciferase reporter incubated for 18 hrs by luciferase assay; assay type: cell-based
T2 sequence (P08235 whole entry): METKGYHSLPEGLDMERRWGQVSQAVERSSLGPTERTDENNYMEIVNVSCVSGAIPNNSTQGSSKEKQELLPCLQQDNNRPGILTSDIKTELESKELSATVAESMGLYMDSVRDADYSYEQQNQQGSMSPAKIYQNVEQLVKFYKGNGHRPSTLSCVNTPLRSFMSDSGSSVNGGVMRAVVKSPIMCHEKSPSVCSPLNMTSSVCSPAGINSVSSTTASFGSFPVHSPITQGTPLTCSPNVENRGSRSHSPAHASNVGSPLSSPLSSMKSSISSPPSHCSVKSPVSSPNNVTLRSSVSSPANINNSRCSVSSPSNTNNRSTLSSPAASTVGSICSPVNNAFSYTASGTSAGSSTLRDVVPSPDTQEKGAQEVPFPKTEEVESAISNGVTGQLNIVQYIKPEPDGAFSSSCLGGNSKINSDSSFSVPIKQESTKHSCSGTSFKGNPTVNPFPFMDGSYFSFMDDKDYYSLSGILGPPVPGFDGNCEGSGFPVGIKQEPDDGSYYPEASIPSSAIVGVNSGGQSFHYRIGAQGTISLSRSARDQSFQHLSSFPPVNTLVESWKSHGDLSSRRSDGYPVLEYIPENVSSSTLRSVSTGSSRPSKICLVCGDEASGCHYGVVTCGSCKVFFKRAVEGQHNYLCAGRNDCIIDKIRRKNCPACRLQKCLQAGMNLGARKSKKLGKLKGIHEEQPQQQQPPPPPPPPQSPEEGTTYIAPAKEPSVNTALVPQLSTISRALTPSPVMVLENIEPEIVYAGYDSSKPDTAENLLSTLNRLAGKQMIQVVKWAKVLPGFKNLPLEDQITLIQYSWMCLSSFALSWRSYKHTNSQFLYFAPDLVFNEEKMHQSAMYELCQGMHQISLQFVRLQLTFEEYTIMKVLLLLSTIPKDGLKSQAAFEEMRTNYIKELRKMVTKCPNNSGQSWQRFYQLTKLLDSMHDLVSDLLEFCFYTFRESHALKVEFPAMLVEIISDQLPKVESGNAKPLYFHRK

[3] = target: T3, G-protein coupled bile acid receptor 1 (Homo sapiens, UniProt Q8TDU6); assay: Agonist activity at TGR5 in human NCI-H716 cells assessed as increase in intracellular cAMP level preincubated with compound for 60 mins followed by IBMX addition and measured after 24 hrs by HTR-FRET assay; assay type: functional, cell-based
T3 sequence (Q8TDU6 whole entry): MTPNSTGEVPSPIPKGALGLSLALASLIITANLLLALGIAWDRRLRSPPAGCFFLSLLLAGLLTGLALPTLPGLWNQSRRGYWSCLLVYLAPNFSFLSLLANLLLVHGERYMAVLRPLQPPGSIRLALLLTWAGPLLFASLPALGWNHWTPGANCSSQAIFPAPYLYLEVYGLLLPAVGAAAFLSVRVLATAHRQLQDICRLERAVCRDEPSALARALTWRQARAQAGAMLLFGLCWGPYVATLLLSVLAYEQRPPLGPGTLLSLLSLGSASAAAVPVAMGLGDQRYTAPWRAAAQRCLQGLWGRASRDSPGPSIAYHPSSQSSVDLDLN

Bile acid receptor = target: T4, Bile acid receptor (Homo sapiens, UniProt Q96RI1); assay: Agonist activity at FXR (unknown origin) transfected in human HepG2 cells incubated for 24 hrs by luciferase assay; assay type: cell-based
T4 sequence (Q96RI1 whole entry): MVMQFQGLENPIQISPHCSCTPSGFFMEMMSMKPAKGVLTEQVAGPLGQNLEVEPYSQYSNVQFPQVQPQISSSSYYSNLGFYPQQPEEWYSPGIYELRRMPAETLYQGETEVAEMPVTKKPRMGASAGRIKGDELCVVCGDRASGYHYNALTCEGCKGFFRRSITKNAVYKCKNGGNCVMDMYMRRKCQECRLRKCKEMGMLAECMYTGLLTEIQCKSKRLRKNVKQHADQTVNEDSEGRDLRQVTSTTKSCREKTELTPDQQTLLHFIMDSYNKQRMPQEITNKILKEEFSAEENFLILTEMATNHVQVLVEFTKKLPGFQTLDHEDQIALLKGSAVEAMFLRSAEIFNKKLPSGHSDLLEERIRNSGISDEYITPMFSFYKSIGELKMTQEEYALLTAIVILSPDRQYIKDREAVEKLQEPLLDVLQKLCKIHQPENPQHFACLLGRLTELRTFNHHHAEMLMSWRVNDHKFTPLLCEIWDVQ

[4] = target: T5, Retinoic acid receptor alpha (Homo sapiens, UniProt P10276); assay: Agonist activity at RARalpha (unknown origin) transfected in green monkey CV-1 cells co-transfected with NHR responsive luciferase reporter incubated for 18 hrs by luciferase assay; assay type: cell-based
T5 sequence (P10276 whole entry): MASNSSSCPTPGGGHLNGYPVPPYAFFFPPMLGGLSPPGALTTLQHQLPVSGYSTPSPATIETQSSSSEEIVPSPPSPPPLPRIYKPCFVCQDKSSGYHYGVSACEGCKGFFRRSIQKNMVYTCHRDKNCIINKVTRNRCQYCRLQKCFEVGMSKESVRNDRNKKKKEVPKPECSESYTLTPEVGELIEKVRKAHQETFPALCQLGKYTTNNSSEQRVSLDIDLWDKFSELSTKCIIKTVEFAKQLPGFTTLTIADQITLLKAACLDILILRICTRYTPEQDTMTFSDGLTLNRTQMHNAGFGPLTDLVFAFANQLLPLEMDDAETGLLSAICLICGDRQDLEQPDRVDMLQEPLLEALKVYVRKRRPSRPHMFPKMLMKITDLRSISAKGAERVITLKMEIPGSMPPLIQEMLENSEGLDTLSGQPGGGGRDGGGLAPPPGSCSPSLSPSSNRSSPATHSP

IC50 [1]: 8.5 µM
EC50 [2]: > 10 µM
EC50 [3]: > 10 µM
EC50 (Bile acid receptor): 0.132 µM
EC50 [4]: > 10 µM
Structure (SMILES): O=C(O)c1ccc(-c2ccc(OCc3c(-c4c(Cl)cccc4Cl)noc3C3CC3)cc2)cc1

From ChEMBL document CHEMBL6114960, “Discovery of First-in-Class FXR and HSD17B13 Dual Modulator for the Treatment of Metabolic Dysfunction-Associated Fatty Liver Disease” (J Med Chem, 2025)
